The test system of data set [1] is pCMVLuc luciferase expression per gram of liver. The data set can be described thus: Luciferase expression in liver after tail vein injection of pCMVLuc polyplexes/formulants. To be noted: mice; for Luciferase Average [pg./g liver]: 15 μg of DNA per injection.
Data set [2] is described as follows: Biodistribution and clearance of 125I-pCMVβGal. Conditions: mice. It counts as in vivo. The protocol: The biodistribution of ^125I-pCMV βGal was also studied in mice. Mice were injected with a dose of 300 μL containing 50 μg/mL of DNA. The distribution of free DNA, free DNA and TCDC, encapsulated in a polyplex comprised of block copolymer (PEG5k-b-(Cys-S—C18)10-b-(Lys)45) and the polyplex with TCDC were tested after 5 (FIG. 17A) and 60 (FIG. 17B) minutes. […] The clearance of ^125I-pCMVβGal was also studied using the ABC Polymer, (PEG5k-b-(Cys-S—C18)10-b-(Lys)45) (BP-A).

For the compound `C[C@H](CCC(=O)NCCCOCCOCCOCCCN)[C@H]1CC[C@H]2C3[C@H](O)C[C@@H]4C[C@H](O)CCC4(C)[C@H]3C[C@H](O)[C@]12C` (stereo partly drawn), in data set [1] (formulant dose 0.10%), the “Luciferase Average [pg./g liver]” value came to 3964 pg./g liver.
As to `C[C@H](CCC(=O)NCCC[N+](C)(C)CCCS(=O)(=O)[O-])[C@H]1CC[C@H]2[C@@H]3[C@H](O)C[C@@H]4C[C@H](O)CC[C@]4(C)[C@H]3C[C@H](O)[C@]12C.O` [CHAPS, 3-[(3-Cholamidopropyl)dimethylammonio]1-propanesulfonate hydrate], the “Luciferase Average [pg./g liver]” value in data set [1] (formulant dose 0.50%) came out at 178 pg./g liver.
Regarding `C[C@H](CCC(=O)NCCC[N+](C)(C)CC(O)CS(=O)(=O)[O-])[C@H]1CC[C@H]2[C@@H]3[C@H](O)C[C@@H]4C[C@H](O)CC[C@]4(C)[C@H]3C[C@H](O)[C@]12C` (stereo partly drawn) [CHAPSO], in data set [1] (formulant dose 0.50%), the “Luciferase Average [pg./g liver]” value was 188 pg./g liver.
Take `CCCCCCC(=O)OC[C@H](COP(=O)([O-])OCC[N+](C)(C)C)OC(=O)CCCCCC` [DHPC]: the “Luciferase Average [pg./g liver]” value in data set [1] (formulant dose 0.40%) came out at 470 pg./g liver. Moreover, the “effect of addition of formulant on luciferase expression (FIG. 15)” value in data set [1] (200 μL dose, 15 μg/mL pCMVLuc, Trigal copolymer polyplexes) is reported as “greatly enhances the expression of luciferase”.
As to `C[C@H](CCC(=O)N(CCCNC(=O)[C@H](O)[C@@H](O)[C@H](O)[C@H](O)CO)CCCNC(=O)[C@H](O)[C@@H](O)[C@H](O)[C@H](O)CO)[C@H]1CC[C@H]2[C@@H]3CC[C@@H]4C[C@H](O)CC[C@]4(C)[C@H]3C[C@H](O)[C@]12C` [Deoxy BIGCHAP], the “Luciferase Average [pg./g liver]” value in data set [1] (formulant dose 0.50%) was 129 pg./g liver.
Regarding `C[C@H](CCC(=O)NCCS(=O)(=O)[O-])[C@H]1CC[C@H]2[C@@H]3[C@@H](O)C[C@@H]4C[C@H](O)CC[C@]4(C)[C@H]3CC[C@]12C.[Na+]` [TCDC], the “biodistribution of 125I-pCMVβGal (FIG. 17)” value in data set [2] (300 μL dose, 50 μg/mL DNA, BP-A polyplex with TCDC, 5 and 60 minutes) is “redirects the polyplex from the lungs and other organs to the blood”. Moreover, the “clearance / half-life of 125I-pCMVβGal DNA” value in data set [2] (ABC Polymer (BP-A) polyplex, administration of TCDC) is given as “greatly enhanced the half-life of the DNA”. Besides, in data set [1] (formulant dose 0.50%), the “Luciferase Average [pg./g liver]” value was found to be 517 pg./g liver.

(Values after patent US20030134420A1, “Methods and compositions for gene delivery” (priority 2000, published 2003).)
